pIC50: −log10 of the molar value.
Experiments:
[1] = biological target: T1, pancreatic lipase (Sus scrofa, UniProt P00591); assay: biochemical
T1 construct: gene PNLIP
T1 sequence (P00591 1-450): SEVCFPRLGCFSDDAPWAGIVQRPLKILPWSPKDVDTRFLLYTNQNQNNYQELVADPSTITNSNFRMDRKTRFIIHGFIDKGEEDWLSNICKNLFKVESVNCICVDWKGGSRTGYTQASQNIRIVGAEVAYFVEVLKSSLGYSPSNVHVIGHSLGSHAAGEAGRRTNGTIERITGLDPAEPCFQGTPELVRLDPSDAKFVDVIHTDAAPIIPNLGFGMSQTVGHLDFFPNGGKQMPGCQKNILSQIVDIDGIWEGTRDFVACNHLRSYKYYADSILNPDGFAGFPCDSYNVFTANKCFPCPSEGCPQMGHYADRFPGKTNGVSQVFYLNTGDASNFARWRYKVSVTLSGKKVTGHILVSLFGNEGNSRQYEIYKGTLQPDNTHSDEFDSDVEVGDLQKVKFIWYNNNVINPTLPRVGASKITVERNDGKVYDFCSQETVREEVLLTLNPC
Procedure: As a substrate, 4-MU oleate was used to test the activity of pancreatic lipase. A mixture of 4-MU oleate solution (50 μL) and different concentrations of test sample (25 μL) were added in the 96-well microtiter plate. Then, lipase solution (50 U/mL, 25 μL) was added and incubated (30 min, 25 °C). To stop the reaction, sodium citrate solution (0.1 M, 0.1 mL, pH 4.2) was added. The level of the product 4-methylumbelliferone was measured by a fluorescence reader (Tecan, Switzerland, Ex/Em = 355 nm/460 nm). The lipase inhibition rate (%) of each test was calculated by equation (4): IC50 of the test samples was calculated on the basis of least-squares regression line of plots of different concentrations (log) against the lipase inhibition rate (%).

[2] = biological target: T1, pancreatic lipase; assay: fluorescent 4-MU oleate hydrolysis assay, type VI-S pancreatic lipase; assay type: biochemical

Row | pIC50 [1] | Molecule | other results
1 | – | O=C(OC1Cc2c(O)cc(O)c(C(c3cc(O)c(O)c(O)c3)C(Cc3c(O)cc(O)cc3O)OC(=O)c3cc(O)c(O)c(O)c3)c2OC1c1cc(O)c(O)c(O)c1)c1cc(O)c(O)c(O)c1 (centres unmarked) [compound 1, assamicain A] | pIC50 ([1]; inhibitor): 6.89
2 | < 4.52 | Oc1cc(O)c2c(c1)O[C@H](c1ccc(O)c(O)c1)[C@H](O)C2 [compound 3, (−)-epicatechin (EC)] | –
3 | 6.24 | O=C(O[C@@H]1Cc2c(O)cc(O)cc2O[C@H]1c1cc(O)c(O)c(O)c1)c1cc(O)c(O)c(O)c1 [compound 6, (−)-gallocatechin-3-O-gallate (GCG)] | –
4 | – | O=C(Oc1cc(O)cc2c1C[C@@H](OC(=O)c1cc(O)c(O)c(O)c1)[C@@H](c1cc(O)c(O)c(O)c1)O2)c1cc(O)c(O)c(O)c1 [compound 8, (−)-epigallocatechin-3,5-di-O-gallate] | pIC50 [2]: 6.96
5 | 6.13 | COc1cc(C(=O)O[C@@H]2Cc3c(O)cc(O)cc3O[C@@H]2c2ccc(O)c(O)c2)cc(O)c1O [compound 9, (−)-epicatechin 3-O-(3′-O-methyl)-gallat] | –
6 | 6.01 | O=C(/C=C/c1ccc(O)cc1)O[C@@H]1Cc2c(O)cc(O)cc2O[C@@H]1c1cc(O)c(O)c(O)c1 [compound 10, (−)-epigallocatechin-3-O-p-coumaroate] | –
7 | – | O=C(O[C@@H]1Cc2c(O)cc(O)c([C@H]3c4c(O)cc(O)cc4O[C@H](c4ccc(O)c(O)c4)[C@@H]3O)c2O[C@@H]1c1cc(O)c(O)c(O)c1)c1cc(O)c(O)c(O)c1 [compound 11, (−)-epicatechin(4β-8)-(−)-epigallocatechin 3-O-gallate] | pIC50 ([1]; inhibitor): 6.80
8 | – | O=C(O[C@@H]1Cc2c(O)cc(O)c([C@H]3c4c(O)cc(O)cc4O[C@H](c4cc(O)c(O)c(O)c4)[C@@H]3O)c2O[C@@H]1c1ccc(O)c(O)c1)c1cc(O)c(O)c(O)c1 [compound 12, (−)-epigallocatechin (4β-8)-(−)-epicatechin-3-O-gallate] | pIC50 ([1]; inhibitor): 5.91
9 | – | O=C(O[C@@H]1[C@@H](c2c(O)cc(O)c3c2O[C@H](c2cc(O)c(O)c(O)c2)[C@H](OC(=O)c2cc(O)c(O)c(O)c2)C3)c2c(O)cc(O)cc2O[C@@H]1c1ccc(O)c(O)c1)c1cc(O)c(O)c(O)c1 [compound 13, (−)-epicatechin-3-O-gallate-(4β-8)-(−)-epigallocatechin3-O-gallate] | pIC50 ([1]; inhibitor): 6.03
10 | – | O=C(O[C@@H]1[C@@H](c2c(O)cc(O)c3c2O[C@H](c2ccc(O)c(O)c2)[C@H](OC(=O)c2cc(O)c(O)c(O)c2)C3)c2c(O)cc(O)cc2O[C@@H]1c1cc(O)c(O)c(O)c1)c1cc(O)c(O)c(O)c1 [compound 14, (−)-epigallocatechin-3-O-gallate-(4β-8)-(−)-epicatechin 3-O-gallate] | pIC50 ([1]; inhibitor): 6.16
11 | 5.55 | O=C(O[C@@H]1Cc2c(O)cc(O)cc2O[C@@H]1c1ccc(O)cc1)c1cc(O)c(O)c(O)c1 [compound 15, (−)-epiafzelechin 3-O-gallate] | –
12 | 5.06 | Oc1cc(O)c2c(c1)O[C@H](c1ccc(O)c(O)c1)[C@@H](O)[C@@H]2c1c(O)cc(O)c2c1O[C@H](c1cc(O)c(O)c(O)c1)[C@H](O)C2 [compound 16, (+)-catechin (4α-8) (−)-epigallocatechin] | –
13 | – | O=C(O[C@@H]1Cc2c(O)cc(O)c([C@@H]3c4c(O)cc(O)cc4O[C@H](c4ccc(O)c(O)c4)[C@H]3O)c2O[C@@H]1c1cc(O)c(O)c(O)c1)c1cc(O)c(O)c(O)c1 [compound 17, (+)-catechin (4α-8) (−)-epigallocatechin 3-O-gallate] | pIC50 ([1]; inhibitor): 6.72
14 | – | O=C(OC1Cc2c(O)cc(O)c(Cc3c(O)cc(O)c4c3OC(c3cc(O)c(O)c(O)c3)C(OC(=O)c3cc(O)c(O)c(O)c3)C4)c2OC1c1cc(O)c(O)c(O)c1)c1cc(O)c(O)c(O)c1 (centres unmarked) [compound 20, oolonghomobisflavan A] | pIC50 [2]: 6.96
15 | 5.06 | Oc1cc(O)c2c(c1)O[C@H](c1ccc(O)c(O)c1)[C@H](O)[C@H]2c1c(O)cc(O)c2c1O[C@H](c1ccc(O)c(O)c1)[C@H](O)C2 [compound 23, procyanidin B2] | –
16 | 5.48 | Oc1cc(O)c2c(c1)O[C@H](c1ccc(O)c(O)c1)[C@@H](O)[C@@H]2c1c(O)cc(O)c2c1O[C@H](c1ccc(O)c(O)c1)[C@@H](O)C2 [compound 24, procyanidin B3] | –
17 | 4.76 | Oc1cc(O)c2c(c1)O[C@H](c1ccc(O)c(O)c1)[C@@H](O)[C@@H]2c1c(O)cc(O)c2c1O[C@H](c1ccc(O)c(O)c1)[C@H](O)C2 [compound 25, procyanidin B4] | –
18 | 5.49 | Oc1cc(O)c2c(c1)O[C@H](c1cc(O)c(O)c(O)c1)[C@H](O)[C@H]2c1c(O)cc(O)c2c1O[C@H](c1cc(O)c(O)c(O)c1)[C@H](O)C2 [compound 27, prodelphinidin B2] | –
19 | – | O=C(O[C@@H]1[C@@H](c2c(O)cc(O)c3c2O[C@H](c2cc(O)c(O)c(O)c2)[C@H](OC(=O)c2cc(O)c(O)c(O)c2)C3)c2c(O)cc(O)cc2O[C@@H]1c1cc(O)c(O)c(O)c1)c1cc(O)c(O)c(O)c1 [compound 29, prodelphinidin B2-3,3′-di-O-gallate] | pIC50 [2]: 7.00
20 | 5.16 | Oc1cc(O)c2c(c1)O[C@H](c1cc(O)c(O)c(O)c1)[C@@H](O)[C@@H]2c1c(O)cc(O)c2c1O[C@H](c1cc(O)c(O)c(O)c1)[C@H](O)C2 [compound 30, prodelphinidin B4] | –
21 | – | O=C(O[C@@H]1Cc2c(O)cc(O)cc2O[C@@H]1c1cc(O)c(O)c2c(=O)c(O)cc([C@H]3Oc4cc(O)cc(O)c4C[C@H]3O)cc12)c1cc(O)c(O)c(O)c1 [compound 33, theaflavin-3′-O-gallate] | pIC50 [2]: 6.89
22 | – | O=C(O[C@@H]1Cc2c(O)cc(O)cc2O[C@@H]1c1cc(O)c(O)c(O)c1-c1c([C@H]2Oc3cc(O)cc(O)c3C[C@H]2OC(=O)c2cc(O)c(O)c(O)c2)cc(O)c(O)c1O)c1cc(O)c(O)c(O)c1 [compound 35, theasinensin A] | pIC50 [2]: 6.82
23 | 6.52 | O=C(O[C@@H]1Cc2c(O)cc(O)cc2O[C@@H]1c1cc(O)c(O)c(O)c1-c1c([C@H]2Oc3cc(O)cc(O)c3C[C@H]2O)cc(O)c(O)c1O)c1cc(O)c(O)c(O)c1 [compound 36, theasinensin B] | –
24 | 4.79 | Oc1cc(O)c2c(c1)O[C@H](c1cc(O)c(O)c(O)c1-c1c([C@H]3Oc4cc(O)cc(O)c4C[C@H]3O)cc(O)c(O)c1O)[C@H](O)C2 [compound 37, theasinensin C] | –
25 | – | (−)-epicatechin-3-O-gallate [compound 4] | pIC50 [2]: 6.47
26 | – | (−)-epigallocatechin-3-O-gallate [compound 7] | pIC50 [2]: 6.41

Source: article PMC5046073, “Prediction and evaluation of the lipase inhibitory activities of tea polyphenols with 3D-QSAR models” (Scientific Reports, 2016)
